The text below walks through data of publication PMC9719519, “Non-classical ferroptosis inhibition by a small molecule targeting PHB2” (Nature Communications, 2022).

The structures appear in SMILES notation.

Holding throughout (test): biochemical
Parameters in all cases: Eurofins recombinant human kinase profiling, remaining kinase activity as % of control, 10 uM ATP
What all share (details): ATP 10 uM; read-out: %Ctrl@10 μM

For one assay, the target named is T1, PKCζ(h) (Homo sapiens, UniProt Q05513).
T1 construct: gene PRKCZ
From the text:
(§1) To rapidly determine the biological target of YL-939, we first tested the activity of YL-939 against a panel of 401 recombinant human protein kinases by using the kinase profiling assay provided by Eurofins, since kinases are often the key components in various signal pathways[35],[36]. […] We then carried out affinity-based proteome profiling assay (ABPP) coupled with bioimaging to identify the biological target of YL-939 (Fig. 4A). To this end, we designed and synthesized a photoaffinity probe, YL-939-1 (Fig. 4A and Supplementary Fig. 5), which is YL-939 attached by a photo-crosslinker (L3) that contains a photo-reactive group diazirine and a clickable alkyne handle.

Another assay has as its target T2, Mer(h) (Homo sapiens, UniProt Q12866).
T2 construct: gene MERTK
Description: as §1

A further assay deals with T3, PDHK2(h) (Homo sapiens, UniProt Q15119).
T3 construct: gene PDK2
Description: as §1

A further assay deals with CaMKK2(h) (Homo sapiens, UniProt Q96RR4).
Description: as §1

In the next assay the target is T4, GSK3β(h) (Homo sapiens, UniProt P49841).
T4 construct: gene GSK3B
Description: as §1

For a further assay, the target named is CDK1/cyclinB(h) (Homo sapiens, UniProt P06493).
Description: as §1

The target in another assay is T5, PRK1(h) (Homo sapiens, UniProt Q16512).
T5 construct: gene PKN1
Description: as §1

For another assay, the target named is T6, ARK5(h) (Homo sapiens, UniProt O60285).
T6 construct: gene NUAK1
Description: as §1

The next assay addresses MYLK2(h) (Homo sapiens, UniProt Q9H1R3).
Description: as §1

The next assay has as its target LTK(h) (Homo sapiens, UniProt P29376).
Description: as §1

For a further assay, the target named is T7, TrkB(h) (Homo sapiens, UniProt Q16620).
T7 construct: gene NTRK2
Description: as §1

In the next assay the target is T8, IR(h) (Homo sapiens, UniProt P06213).
T8 construct: gene INSR
Description: as §1

For assay [1], the target named is T9, PI3 Kinase (p110(H1047R)/p85)(h) (Homo sapiens, UniProt P42336, H1047R).
T9 construct: gene PIK3CA
Description: as §1

The next assay concerns the target Fyn(h) (Homo sapiens, UniProt P06241).
Description: as §1

Another assay deals with T10, Abl (M351T)(h) (Homo sapiens, UniProt P00519, M351T).
T10 construct: gene ABL1
Description: as §1

The next assay addresses T11, PhKγ1(h) (Homo sapiens, UniProt Q16816).
T11 construct: gene PHKG1
Description: as §1

A further assay concerns the target T12, CaMKIIδ(h) (Homo sapiens, UniProt Q13557).
T12 construct: gene CAMK2D
Description: as §1

For the next assay, the target named is DYRK2(h) (Homo sapiens, UniProt Q92630).
Description: as §1

A further assay concerns the target PRKG2(h) (Homo sapiens, UniProt Q13237).
Description: as §1

The next assay addresses T13, Aurora-B(h) (Homo sapiens, UniProt Q96GD4).
T13 construct: gene AURKB
Description: as §1

For the next assay, the target named is CDK9/cyclin T1(h) (Homo sapiens, UniProt P50750).
Description: as §1

The next assay concerns the target ErbB4(h) (Homo sapiens, UniProt Q15303).
Description: as §1

T5 sequence (Q16512 whole entry): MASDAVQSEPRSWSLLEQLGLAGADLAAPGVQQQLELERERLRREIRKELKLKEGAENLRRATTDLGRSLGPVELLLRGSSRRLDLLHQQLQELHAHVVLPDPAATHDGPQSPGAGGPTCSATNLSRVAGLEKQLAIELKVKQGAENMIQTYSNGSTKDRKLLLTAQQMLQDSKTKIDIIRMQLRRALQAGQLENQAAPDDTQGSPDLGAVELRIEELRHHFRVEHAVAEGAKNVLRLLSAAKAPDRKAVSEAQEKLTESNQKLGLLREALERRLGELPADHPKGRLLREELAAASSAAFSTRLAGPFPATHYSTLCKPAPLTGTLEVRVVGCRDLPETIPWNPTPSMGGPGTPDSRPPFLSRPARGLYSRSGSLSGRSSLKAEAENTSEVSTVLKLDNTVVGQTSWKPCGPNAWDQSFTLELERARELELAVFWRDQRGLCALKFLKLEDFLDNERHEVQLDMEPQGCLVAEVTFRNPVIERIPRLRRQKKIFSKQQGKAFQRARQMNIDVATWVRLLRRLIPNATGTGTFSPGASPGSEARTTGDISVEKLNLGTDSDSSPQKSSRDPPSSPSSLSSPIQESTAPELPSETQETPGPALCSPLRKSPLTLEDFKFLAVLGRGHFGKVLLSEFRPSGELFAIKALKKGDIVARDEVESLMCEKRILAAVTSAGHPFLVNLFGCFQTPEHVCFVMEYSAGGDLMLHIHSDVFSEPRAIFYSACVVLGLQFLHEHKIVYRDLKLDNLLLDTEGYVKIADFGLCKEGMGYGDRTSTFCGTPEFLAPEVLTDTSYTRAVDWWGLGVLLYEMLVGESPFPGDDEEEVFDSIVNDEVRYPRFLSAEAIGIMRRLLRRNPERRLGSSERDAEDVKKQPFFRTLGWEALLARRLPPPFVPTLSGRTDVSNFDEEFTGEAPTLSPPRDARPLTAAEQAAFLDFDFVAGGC
T9 sequence (P42336 whole entry H1047R): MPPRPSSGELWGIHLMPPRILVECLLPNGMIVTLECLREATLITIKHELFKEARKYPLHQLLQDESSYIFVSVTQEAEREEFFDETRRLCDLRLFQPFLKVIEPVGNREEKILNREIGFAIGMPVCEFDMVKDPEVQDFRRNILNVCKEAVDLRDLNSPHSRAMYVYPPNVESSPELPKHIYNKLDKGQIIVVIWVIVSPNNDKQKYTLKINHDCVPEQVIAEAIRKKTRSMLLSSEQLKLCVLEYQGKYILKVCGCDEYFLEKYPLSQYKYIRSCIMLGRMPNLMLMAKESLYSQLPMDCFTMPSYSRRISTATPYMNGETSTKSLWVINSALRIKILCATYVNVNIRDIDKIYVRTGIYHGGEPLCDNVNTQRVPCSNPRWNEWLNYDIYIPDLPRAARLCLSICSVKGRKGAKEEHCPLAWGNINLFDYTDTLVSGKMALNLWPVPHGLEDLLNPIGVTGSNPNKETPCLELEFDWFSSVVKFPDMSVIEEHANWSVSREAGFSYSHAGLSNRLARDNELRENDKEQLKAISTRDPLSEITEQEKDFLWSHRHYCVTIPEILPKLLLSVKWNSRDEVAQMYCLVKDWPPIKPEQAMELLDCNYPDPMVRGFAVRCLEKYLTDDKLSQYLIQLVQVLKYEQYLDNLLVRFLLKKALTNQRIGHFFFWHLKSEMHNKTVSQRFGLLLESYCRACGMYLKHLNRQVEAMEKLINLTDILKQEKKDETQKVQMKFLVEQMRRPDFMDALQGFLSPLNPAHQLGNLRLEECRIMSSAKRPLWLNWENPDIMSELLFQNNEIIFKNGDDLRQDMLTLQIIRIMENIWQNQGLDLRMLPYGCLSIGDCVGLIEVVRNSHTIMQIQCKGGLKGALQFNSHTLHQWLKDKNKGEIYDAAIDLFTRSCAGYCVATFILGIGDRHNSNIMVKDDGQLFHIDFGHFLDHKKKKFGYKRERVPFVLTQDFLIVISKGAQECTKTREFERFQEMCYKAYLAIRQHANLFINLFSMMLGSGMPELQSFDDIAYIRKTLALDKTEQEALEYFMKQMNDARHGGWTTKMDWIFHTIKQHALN
T9 sequence (P27986 whole entry partner): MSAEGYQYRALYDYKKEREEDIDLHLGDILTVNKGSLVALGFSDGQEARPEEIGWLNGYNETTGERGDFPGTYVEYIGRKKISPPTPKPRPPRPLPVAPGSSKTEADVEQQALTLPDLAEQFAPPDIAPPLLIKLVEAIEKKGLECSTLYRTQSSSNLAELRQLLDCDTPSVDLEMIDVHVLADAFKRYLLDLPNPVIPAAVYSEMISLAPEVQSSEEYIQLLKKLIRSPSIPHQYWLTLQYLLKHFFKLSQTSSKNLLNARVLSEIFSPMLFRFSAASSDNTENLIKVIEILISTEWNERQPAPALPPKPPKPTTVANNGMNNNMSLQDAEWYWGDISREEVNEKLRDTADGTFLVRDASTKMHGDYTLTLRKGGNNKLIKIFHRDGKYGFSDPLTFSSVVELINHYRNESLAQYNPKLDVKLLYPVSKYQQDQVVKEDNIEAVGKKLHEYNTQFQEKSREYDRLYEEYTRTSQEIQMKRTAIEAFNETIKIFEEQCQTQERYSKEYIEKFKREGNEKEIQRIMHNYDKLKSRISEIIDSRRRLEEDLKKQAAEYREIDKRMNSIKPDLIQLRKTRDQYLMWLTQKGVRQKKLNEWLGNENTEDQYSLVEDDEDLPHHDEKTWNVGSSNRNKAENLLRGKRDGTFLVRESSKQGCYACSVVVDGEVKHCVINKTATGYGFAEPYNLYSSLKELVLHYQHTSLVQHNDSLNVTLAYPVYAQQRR
T6 sequence (O60285 whole entry): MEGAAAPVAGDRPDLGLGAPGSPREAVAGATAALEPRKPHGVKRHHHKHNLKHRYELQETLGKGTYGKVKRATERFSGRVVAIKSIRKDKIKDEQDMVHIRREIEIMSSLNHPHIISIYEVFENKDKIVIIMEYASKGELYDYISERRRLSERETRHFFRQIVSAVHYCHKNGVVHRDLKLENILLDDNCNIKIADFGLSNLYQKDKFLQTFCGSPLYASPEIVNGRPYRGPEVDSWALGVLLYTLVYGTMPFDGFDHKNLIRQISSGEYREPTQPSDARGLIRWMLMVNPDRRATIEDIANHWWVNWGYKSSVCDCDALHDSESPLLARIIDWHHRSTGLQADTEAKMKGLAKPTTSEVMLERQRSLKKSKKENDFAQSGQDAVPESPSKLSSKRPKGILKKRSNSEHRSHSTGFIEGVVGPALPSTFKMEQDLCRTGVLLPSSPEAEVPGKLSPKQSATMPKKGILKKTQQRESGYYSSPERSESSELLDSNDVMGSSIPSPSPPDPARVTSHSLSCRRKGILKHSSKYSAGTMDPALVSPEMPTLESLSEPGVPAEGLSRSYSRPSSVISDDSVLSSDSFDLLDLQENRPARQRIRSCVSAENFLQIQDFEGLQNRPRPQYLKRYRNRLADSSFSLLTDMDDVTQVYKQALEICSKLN
T1 sequence (Q05513 whole entry): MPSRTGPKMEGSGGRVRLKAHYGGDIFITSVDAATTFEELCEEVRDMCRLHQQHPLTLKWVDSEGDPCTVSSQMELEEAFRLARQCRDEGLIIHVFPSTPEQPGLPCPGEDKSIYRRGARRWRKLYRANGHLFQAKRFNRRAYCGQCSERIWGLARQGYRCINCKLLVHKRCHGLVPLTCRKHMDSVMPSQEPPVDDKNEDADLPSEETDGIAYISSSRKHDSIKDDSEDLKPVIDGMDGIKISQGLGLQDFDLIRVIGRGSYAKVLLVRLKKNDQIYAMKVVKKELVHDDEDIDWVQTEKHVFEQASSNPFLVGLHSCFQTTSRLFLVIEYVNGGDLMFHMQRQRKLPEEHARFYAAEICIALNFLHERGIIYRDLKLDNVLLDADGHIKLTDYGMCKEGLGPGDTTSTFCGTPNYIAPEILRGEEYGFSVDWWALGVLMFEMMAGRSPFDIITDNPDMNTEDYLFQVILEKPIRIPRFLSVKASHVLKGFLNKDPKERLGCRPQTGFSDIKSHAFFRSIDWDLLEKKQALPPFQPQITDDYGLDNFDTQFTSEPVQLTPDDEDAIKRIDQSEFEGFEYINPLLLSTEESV
T7 sequence (Q16620 whole entry): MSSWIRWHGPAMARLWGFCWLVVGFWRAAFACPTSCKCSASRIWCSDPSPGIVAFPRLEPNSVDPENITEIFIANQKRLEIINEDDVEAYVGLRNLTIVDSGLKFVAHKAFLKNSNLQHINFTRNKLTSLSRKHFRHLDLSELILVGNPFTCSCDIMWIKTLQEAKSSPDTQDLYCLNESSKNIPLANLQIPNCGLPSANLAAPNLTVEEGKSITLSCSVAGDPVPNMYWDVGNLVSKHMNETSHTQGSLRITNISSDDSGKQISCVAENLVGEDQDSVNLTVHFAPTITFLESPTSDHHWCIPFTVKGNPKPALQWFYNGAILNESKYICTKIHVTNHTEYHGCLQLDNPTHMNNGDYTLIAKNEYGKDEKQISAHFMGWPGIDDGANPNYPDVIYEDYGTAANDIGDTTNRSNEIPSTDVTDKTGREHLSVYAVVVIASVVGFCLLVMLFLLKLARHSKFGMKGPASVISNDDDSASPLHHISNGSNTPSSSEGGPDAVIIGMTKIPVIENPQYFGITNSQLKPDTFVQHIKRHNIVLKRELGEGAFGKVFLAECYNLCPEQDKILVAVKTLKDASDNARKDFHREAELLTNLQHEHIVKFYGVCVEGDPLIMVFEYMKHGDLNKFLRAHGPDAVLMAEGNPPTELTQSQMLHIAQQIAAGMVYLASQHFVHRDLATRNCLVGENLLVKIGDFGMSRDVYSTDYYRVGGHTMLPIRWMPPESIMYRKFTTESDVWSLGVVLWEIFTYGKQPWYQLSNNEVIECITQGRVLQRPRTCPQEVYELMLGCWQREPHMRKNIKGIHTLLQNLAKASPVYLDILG

With `C1=C(c2nc(-c3cnn(C4CCNCC4)c3)cn3cc(-c4ccccc4)nc23)CCOC1` [YL-939], the remaining activity at 10 µM at PKCζ(h) turned out to be 94%; on Mer(h), 78%; on PDHK2(h) it was 87%; on CaMKK2(h), 83%; on GSK3β(h), 96%; at CDK1/cyclinB(h) it was 92%. The remaining activity at 10 µM on PRK1(h) is 96%; at ARK5(h) it was 93%; on MYLK2(h) it was 52%; on LTK(h) it was 108%; at TrkB(h) it was 81%; on IR(h), 114%. In addition, the remaining activity at 10 µM in assay [1] stood at 99%; on Fyn(h), 81%; at Abl (M351T)(h), 108%; on PhKγ1(h) it was 85%; at CaMKIIδ(h), 68%; at DYRK2(h), 93%. The remaining activity at 10 µM on PRKG2(h) is 97%; at Aurora-B(h) it was 89%; at CDK9/cyclin T1(h), 119%; on ErbB4(h) it was 99%.
